Data reported in patent US7449447B2, “Peptidomimetic NS3-serine protease inhibitors of hepatitis C virus” (priority 2003, dated 2008).
*1 amine or outer side, *2 acyl side, *3 side chain or, on linkers, in order; H or OH if unused. Where a SMILES comes first, the peptide text is derived from it. [ ]: non-standard residue; d: D form. The star is where a group is joined. Pro(3R,4S-CMe2) = CC1(C)[C@@H]2[C@@H](C(=O)O)NC[C@@H]21; Abu(4,4-F2) = N[C@@H](CC(F)F)C(=O)O; Phg = N[C@H](C(=O)O)c1ccccc1; Tle = CC(C)(C)[C@H](N)C(=O)O; CO = O=C([*:1])[*:2]; NHtBu = CC(C)(C)N*

Molecular target: T1, HCV NS3/NS4a serine protease (Hepatitis C virus genotype 1b, UniProt P26663)
T1 construct: amino terminus of the NS3 protease domain (amino acids 3-181) with a tetrapeptide linker; made in house; host or cells: E. coli
T1 sequence (P26663 1013-1207, looked up, natural form): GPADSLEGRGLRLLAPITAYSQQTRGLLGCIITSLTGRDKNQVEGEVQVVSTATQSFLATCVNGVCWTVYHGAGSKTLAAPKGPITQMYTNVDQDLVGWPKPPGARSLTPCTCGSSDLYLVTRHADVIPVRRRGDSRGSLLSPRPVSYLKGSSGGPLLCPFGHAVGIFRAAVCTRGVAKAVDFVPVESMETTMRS
Test: Spectrophotometric assay for HCV protease inhibitory activity (chromogenic ester substrates)
Type: biochemical, hepatitis C virus (strain 1b)
Conditions: single chain NS4A21-32-GSGS-NS3 3-181 protease, 30° C., pH 6.5
Summary of the method: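 Single-chain NS4A(21-32)-GSGS-NS3(3-181) protease (genotype 1b) from E. coli was used at 1.3 nM in 25 mM MOPS pH 6.5 with 300 mM NaCl, 30 °C and 4% DMSO. Chromogenic ester substrate cleavage was followed as PAP release at 370 nm over 60 min. Ki was derived from vo/vi versus [I] plots assuming competitive inhibition.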

| Structure (SMILES) | Ki (Ki, Table 3, rating) | also measured |
| --- | --- | --- |
| CC(C)(C)OC(=O)N[C@H](C(=O)N1C[C@H]2[C@@H]([C@H]1C(=O)N[C@@H](CC(F)F)C(=O)NCCC(=O)O)C2(C)C)C(C)(C)C [Example 169] |  | Ki (Ki Rating, Table 2): > 500 nM |
| COC(=O)c1ccc(CCNC(=O)[C@H](CC(F)F)NC(=O)[C@@H]2[C@@H]3[C@H](CN2C(=O)[C@@H](NC(=O)N[C@H](CN(C)S(=O)(=O)c2ccccc2)C(C)C)C(C)(C)C)C3(C)C)cc1 [Example 116] |  | Ki (Ki, Table 1): 100 nM |
| CN(C[C@@H](NC(=O)N[C@H](C(=O)N1C[C@H]2[C@@H]([C@H]1C(=O)N[C@@H](CC(F)F)C(=O)NC1CCCc3ccccc31)C2(C)C)C(C)(C)C)C(C)(C)C)S(C)(=O)=O (some centres unmarked) [Example 224] | > 500 nM |  |
| CN(C[C@@H](NC(=O)N[C@H](C(=O)N1C[C@H]2[C@@H]([C@H]1C(=O)N[C@@H](CC(F)F)C(=O)NC1CCCC1)C2(C)C)C(C)(C)C)C(C)(C)C)S(C)(=O)=O [Example 207] | > 500 nM |  |
| CN(C[C@@H](NC(=O)N[C@H](C(=O)N1C[C@H]2[C@@H]([C@H]1C(=O)N[C@@H](CC(F)F)C(=O)NCCc1ccc(S(N)(=O)=O)cc1)C2(C)C)C(C)(C)C)C(C)(C)C)S(C)(=O)=O [Example 201] | < 100 nM |  |
| COC(=O)c1ccc(CCNC(=O)C(CC(F)F)NC(=O)[C@@H]2[C@@H]3[C@H](CN2C(=O)[C@@H](NC(=O)N[C@H](C(=O)OC(C)(C)C)C(C)C)C(C)(C)C)C3(C)C)cc1 (some centres unmarked) [Example 138] |  | Ki (Ki Rating, Table 2): 100 to 500 nM |
| COc1cc(CCNC(=O)[C@H](CC(F)F)NC(=O)[C@@H]2[C@@H]3[C@H](CN2C(=O)[C@@H](NC(=O)N[C@H](CN(C)S(C)(=O)=O)C(C)(C)C)C(C)(C)C)C3(C)C)cc(OC)c1 [Example 278] | 100 to 500 nM |  |
| CC(C)(C)[C@H](NC(=O)N[C@H](C(=O)N1C[C@H]2[C@@H]([C@H]1C(=O)N[C@@H](CC(F)F)C(=O)NCCc1ccc(C(=O)O)cc1)C2(C)C)C(C)(C)C)C(=O)O [Example 114] |  | Ki (Ki, Table 1): 90 nM |
| CN(C[C@@H](NC(=O)N[C@H](C(=O)N1C[C@H]2[C@@H]([C@H]1C(=O)N[C@@H](CC(F)F)C(=O)N[C@@H]1c3ccccc3C[C@@H]1O)C2(C)C)C(C)(C)C)C(C)(C)C)S(C)(=O)=O [Example 247] | > 500 nM |  |
| CN(C[C@@H](NC(=O)N[C@H](C(=O)N1C[C@H]2[C@@H]([C@H]1C(=O)N[C@@H](CC(F)F)C(=O)NCCc1cccnc1)C2(C)C)C(C)(C)C)C(C)(C)C)S(C)(=O)=O [Example 236] | < 100 nM |  |
| CN(C[C@@H](NC(=O)N[C@H](C(=O)N1C[C@H]2[C@@H]([C@H]1C(=O)N[C@@H](CC(F)F)C(=O)NCCc1ccc(Cl)c(Cl)c1)C2(C)C)C(C)(C)C)C(C)(C)C)S(C)(=O)=O [Example 285] | < 100 nM |  |
| CC(C)[C@H](NC(=O)N[C@H](C(=O)N1C[C@H]2[C@@H]([C@H]1C(=O)NC(CC(F)F)C(=O)NCCc1ccccc1)C2(C)C)C(C)(C)C)C(=O)OC(C)(C)C (some centres unmarked) [Example 140] |  | Ki (Ki Rating, Table 2): 100 to 500 nM |
| Cc1cccc(CCNC(=O)[C@H](CC(F)F)NC(=O)[C@@H]2[C@@H]3[C@H](CN2C(=O)[C@@H](NC(=O)N[C@H](CN(C)S(C)(=O)=O)C(C)(C)C)C(C)(C)C)C3(C)C)c1 [Example 260] | < 100 nM |  |
| CN(C[C@@H](NC(=O)N[C@H](C(=O)N1C[C@H]2[C@@H]([C@H]1C(=O)N[C@@H](CC(F)F)C(=O)NC1CCN(Cc3ccccc3)CC1)C2(C)C)C(C)(C)C)C(C)(C)C)S(C)(=O)=O [Example 243] | > 500 nM |  |
| COC[C@@H](NC(=O)N[C@H](C(=O)N1C[C@H]2[C@@H]([C@H]1C(=O)N[C@@H](CC(F)F)C(=O)NCCc1ccc(C(=O)OC)cc1)C2(C)C)C(C)(C)C)C(C)(C)C [Example 142] |  | Ki (Ki Rating, Table 2): 100 to 500 nM |
| CC(C)(C)[C@H](NC(=O)N[C@H](CN1CCCS1(=O)=O)C(C)(C)C)C(=O)N1C[C@H]2[C@@H](C1C(=O)NC(CC(F)F)C(=O)NCCc1ccc(C(N)=O)cc1Cl)C2(C)C (some centres unmarked) [Example 111] |  | Ki (Ki, Table 1): 42 nM |
| COC(=O)c1ccc(CCNC(=O)[C@H](CC(F)F)NC(=O)[C@@H]2[C@H]3CC(C)(C)O[C@H]3CN2C(=O)[C@@H](NC(=O)N[C@H](C(=O)OC(C)(C)C)C(C)C)C2CCCCC2)cc1 [Example 154] |  | Ki (Ki Rating, Table 2): > 500 nM |
| CN(C[C@@H](NC(=O)N[C@H](C(=O)N1C[C@H]2[C@@H]([C@H]1C(=O)N[C@@H](CC(F)F)C(=O)NCCc1ccc(O)c(O)c1)C2(C)C)C(C)(C)C)C(C)(C)C)S(C)(=O)=O [Example 298] | < 100 nM |  |
| CN(C[C@@H](NC(=O)N[C@H](C(=O)N1C[C@H]2[C@@H]([C@H]1C(=O)N[C@@H](CC(F)F)C(=O)NCC(c1ccccc1)c1ccccc1)C2(C)C)C(C)(C)C)C(C)(C)C)S(C)(=O)=O [Example 228] | > 500 nM |  |
| CC(C)(C)OC(=O)[C@@H](NC(=O)N[C@H](C(=O)N1C[C@H]2[C@@H]([C@H]1C(=O)N[C@@H](CC(F)F)C(=O)NCCc1ccc(C(=O)O)cc1)C2(C)C)C(C)(C)C)C(C)(C)C [Example 127] |  | Ki (Ki Rating, Table 2): 100 to 500 nM |
| COc1ccc(CCNC(=O)[C@H](CC(F)F)NC(=O)[C@@H]2[C@@H]3[C@H](CN2C(=O)[C@@H](NC(=O)N[C@H](CN(C)S(C)(=O)=O)C(C)(C)C)C(C)(C)C)C3(C)C)cc1OC [Example 280] | < 100 nM |  |

| Structure (SMILES) | Ki (Ki, Table 3, rating) | also measured |
| --- | --- | --- |
| CC(C)[C@H](NC(=O)N[C@H](C(=O)N1C[C@H]2[C@@H]([C@H]1C(=O)N[C@@H](CC(F)F)C(=O)NCCc1ccc(C(=O)O)cc1)C2(C)C)C(C)(C)C)C(=O)O [Example 113] |  | Ki (Ki, Table 1): 90 nM |
| CC(C)[C@H](NC(=O)N[C@H](C(=O)N1C[C@H]2[C@@H]([C@H]1C(=O)N[C@@H](CC(F)F)C(=O)NCCc1ccc(C(=O)N(C)C)cc1)C2(C)C)C(C)(C)C)C(=O)OC(C)(C)C [Example 141] |  | Ki (Ki Rating, Table 2): 100 to 500 nM |
| CN(C[C@@H](NC(=O)N[C@H](C(=O)N1C[C@H]2[C@@H]([C@H]1C(=O)N[C@@H](CC(F)F)C(=O)NCCc1ccccc1Cl)C2(C)C)C(C)(C)C)C(C)(C)C)S(C)(=O)=O [Example 251] | < 100 nM |  |
| COc1ccccc1CCNC(=O)[C@H](CC(F)F)NC(=O)[C@@H]1[C@@H]2[C@H](CN1C(=O)[C@@H](NC(=O)N[C@H](CN(C)S(C)(=O)=O)C(C)(C)C)C(C)(C)C)C2(C)C [Example 269] | < 100 nM |  |
| CCc1ccc(CCNC(=O)[C@H](CC(F)F)NC(=O)[C@@H]2[C@@H]3[C@H](CN2C(=O)[C@@H](NC(=O)N[C@H](CN(C)S(C)(=O)=O)C(C)(C)C)C(C)(C)C)C3(C)C)cc1 [Example 268] | < 100 nM |  |
| CN(C[C@@H](NC(=O)N[C@H](C(=O)N1C[C@H]2[C@@H]([C@H]1C(=O)N[C@@H](CC(F)F)C(=O)NCC(C)(C)C)C2(C)C)C(C)(C)C)C(C)(C)C)S(C)(=O)=O [Example 209] | > 500 nM |  |
| CN(C[C@@H](NC(=O)N[C@H](C(=O)N1C[C@H]2[C@@H]([C@H]1C(=O)N[C@@H](CC(F)F)C(=O)NCCCN1CCCC1=O)C2(C)C)C(C)(C)C)C(C)(C)C)S(C)(=O)=O [Example 223] | > 500 nM |  |
| CN(C)C(=O)[C@@H](NC(=O)CNC(=O)[C@H](CC(F)F)NC(=O)[C@@H]1[C@@H]2[C@H](CN1C(=O)[C@@H](NC(=O)NC(C)(C)C)C(C)(C)C)C2(C)C)c1ccccc1 [Example 166] ({NHtBu-CO}-[Tle][Pro(3R,4S-CMe2)][Abu(4,4-F2)]G[Phg]-NMe2) |  | Ki (Ki Rating, Table 2): > 500 nM |
| CN(C[C@@H](NC(=O)N[C@H](C(=O)N1C[C@H]2[C@@H]([C@H]1C(=O)N[C@@H](CC(F)F)C(=O)NCCc1ccccc1Br)C2(C)C)C(C)(C)C)C(C)(C)C)S(C)(=O)=O [Example 289] | < 100 nM |  |
| CC1(NC(=O)N[C@H](C(=O)N2C[C@H]3[C@@H]([C@H]2C(=O)N[C@@H](CC(F)F)C(=O)NCCC(=O)OC(C)(C)C)C3(C)C)C(C)(C)C)CCCCC1 [Example 155] |  | Ki (Ki Rating, Table 2): > 500 nM |
| COc1ccc(CCNC(=O)[C@H](CC(F)F)NC(=O)[C@@H]2[C@@H]3[C@H](CN2C(=O)[C@@H](NC(=O)N[C@H](CN(C)S(C)(=O)=O)C(C)(C)C)C(C)(C)C)C3(C)C)cc1Cl [Example 281] | < 100 nM |  |
| CCOCCCNC(=O)[C@H](CC(F)F)NC(=O)[C@@H]1[C@@H]2[C@H](CN1C(=O)[C@@H](NC(=O)N[C@H](CN(C)S(C)(=O)=O)C(C)(C)C)C(C)(C)C)C2(C)C [Example 211] | > 500 nM |  |
| CN(C[C@@H](NC(=O)N[C@H](C(=O)N1C[C@H]2[C@@H]([C@H]1C(=O)N[C@@H](CC(F)F)C(=O)N[C@@H]1CCC[C@H]1OCc1ccccc1)C2(C)C)C(C)(C)C)C(C)(C)C)S(C)(=O)=O [Example 254] | > 500 nM |  |
| CC(C)[C@H](NC(=O)N[C@H](C(=O)N1C[C@H]2[C@@H]([C@H]1C(=O)N[C@@H](CC(F)F)C(=O)NCCc1ccc(C(=O)O)cc1)C2(C)C)C(C)(C)C)C(=O)c1ccccc1 [Example 132] |  | Ki (Ki Rating, Table 2): 100 to 500 nM |
| Cc1ccccc1CCNC(=O)[C@H](CC(F)F)NC(=O)[C@@H]1[C@@H]2[C@H](CN1C(=O)[C@@H](NC(=O)N[C@H](CN(C)S(C)(=O)=O)C(C)(C)C)C(C)(C)C)C2(C)C [Example 259] | < 100 nM |  |
| COC(=O)[C@H](CC(F)F)NC(=O)[C@@H]1[C@H]2CC(C)(C)O[C@H]2CN1C(=O)[C@@H](NC(=O)OCc1ccccc1)C1CCCCC1 [Example 170] |  | Ki (Ki Rating, Table 2): > 500 nM |
| CC(C)[C@H](NC(=O)N[C@H](C(=O)N1C[C@H]2[C@@H]([C@H]1C(=O)NC(CC(F)F)C(=O)NCCc1ccc(C(=O)O)cc1)C2(C)C)C(C)(C)C)C(=O)O (some centres unmarked) [Example 146] |  | Ki (Ki Rating, Table 2): > 500 nM |
| CN(C[C@@H](NC(=O)N[C@H](C(=O)N1C[C@H]2[C@@H]([C@H]1C(=O)N[C@@H](CC(F)F)C(=O)NCCC#N)C2(C)C)C(C)(C)C)C(C)(C)C)S(C)(=O)=O [Example 204] | > 500 nM |  |
| COc1ccc(CCNC(=O)[C@H](CC(F)F)NC(=O)[C@@H]2[C@@H]3[C@H](CN2C(=O)[C@@H](NC(=O)N[C@H](CN(C)S(C)(=O)=O)C(C)(C)C)C(C)(C)C)C3(C)C)cc1 [Example 271] | < 100 nM |  |
| CN(C[C@@H](NC(=O)N[C@H](C(=O)N1C[C@H]2[C@@H]([C@H]1C(=O)N[C@@H](CC(F)F)C(=O)NCCc1c[nH]cn1)C2(C)C)C(C)(C)C)C(C)(C)C)S(C)(=O)=O [Example 244] | > 500 nM |  |
